According to PubChem BioAssay (NCI):
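Compound exposure: 48 hours, 5 concentrations, 96-well plates. TGI denotes the concentration required for complete inhibition of growth.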

Tests used:
Test in all cases: NCI anticancer screen, dose series, 48 h
786-0 renal = tested on: 786-0 renal
A498 renal = tested on: A498 renal
A549 NSCLC = tested on: A549 NSCLC
ACHN renal = tested on: ACHN renal
BT-549 breast = tested on: BT-549 breast
CAKI-1 renal = tested on: CAKI-1 renal
CCRF-CEM leukemia = tested on: CCRF-CEM leukemia
COLO 205 colon = tested on: COLO 205 colon
DU-145 prostate = tested on: DU-145 prostate
EKVX NSCLC = tested on: EKVX NSCLC
HCC-2998 colon = tested on: HCC-2998 colon
HCT-116 colon = tested on: HCT-116 colon
HCT-15 colon = tested on: HCT-15 colon
HL-60(TB) leukemia = tested on: HL-60(TB) leukemia
HOP-62 NSCLC = tested on: HOP-62 NSCLC
HOP-92 NSCLC = tested on: HOP-92 NSCLC
HS 578T breast = tested on: HS 578T breast
HT29 colon = tested on: HT29 colon
IGROV1 ovarian = tested on: IGROV1 ovarian
K-562 leukemia = tested on: K-562 leukemia
KM12 colon = tested on: KM12 colon
LOX IMVI melanoma = tested on: LOX IMVI melanoma
M14 melanoma = tested on: M14 melanoma
MALME-3M melanoma = tested on: MALME-3M melanoma
MCF7 breast = tested on: MCF7 breast
MDA-MB-231 breast = tested on: MDA-MB-231 breast
MDA-MB-435 = tested on: MDA-MB-435
MDA-N = tested on: MDA-N
MOLT-4 leukemia = tested on: MOLT-4 leukemia
NCI-H226 lung = tested on: NCI-H226 lung
NCI-H23 lung = tested on: NCI-H23 lung
NCI-H460 lung = tested on: NCI-H460 lung
NCI-H522 lung = tested on: NCI-H522 lung
NCI/ADR-RES ovarian = tested on: NCI/ADR-RES ovarian
OVCAR-3 ovarian = tested on: OVCAR-3 ovarian
OVCAR-4 ovarian = tested on: OVCAR-4 ovarian
OVCAR-5 ovarian = tested on: OVCAR-5 ovarian
OVCAR-8 ovarian = tested on: OVCAR-8 ovarian
PC-3 prostate = tested on: PC-3 prostate
RPMI-8226 leukemia = tested on: RPMI-8226 leukemia
RXF 393 renal = tested on: RXF 393 renal
SF-268 CNS = tested on: SF-268 CNS
SF-295 CNS = tested on: SF-295 CNS
SF-539 CNS = tested on: SF-539 CNS
SK-MEL-2 melanoma = tested on: SK-MEL-2 melanoma
SK-MEL-28 melanoma = tested on: SK-MEL-28 melanoma
SK-MEL-5 melanoma = tested on: SK-MEL-5 melanoma
SK-OV-3 ovarian = tested on: SK-OV-3 ovarian
SN12C renal = tested on: SN12C renal
SNB-19 CNS = tested on: SNB-19 CNS
SNB-75 CNS = tested on: SNB-75 CNS
SR leukemia = tested on: SR leukemia
SW-620 colon = tested on: SW-620 colon
T-47D breast = tested on: T-47D breast
TK-10 renal = tested on: TK-10 renal
U251 CNS = tested on: U251 CNS
UACC-257 melanoma = tested on: UACC-257 melanoma
UACC-62 melanoma = tested on: UACC-62 melanoma
UO-31 renal = tested on: UO-31 renal

Work on `O=C1CSC(c2cccs2)N1c1nc2cc3sc(N4C(=O)CSC4c4cccs4)nc3cc2s1` (centres undefined) yielded a TGI (786-0 renal) of over 50 µM, a TGI (A498 renal) of over 50 µM and a TGI (A549 NSCLC) of over 50 µM. It also gave a TGI (ACHN renal) of over 50 µM, a TGI (BT-549 breast) of over 50 µM and a TGI (CAKI-1 renal) of over 50 µM. The TGI (CCRF-CEM leukemia) was over 50 µM, the TGI (COLO 205 colon) was 3.18 µM and the TGI (DU-145 prostate) was over 50 µM. For the same compound, the TGI (EKVX NSCLC) was over 50 µM, the TGI (HCC-2998 colon) was over 50 µM and the TGI (HCT-116 colon) was over 50 µM. It also gave a TGI (HCT-15 colon) of over 50 µM, a TGI (HL-60(TB) leukemia) of over 50 µM and a TGI (HOP-62 NSCLC) of over 50 µM. For the same compound, the TGI (HOP-92 NSCLC) was over 50 µM, the TGI (HS 578T breast) was over 50 µM and the TGI (HT29 colon) was over 50 µM. The TGI (IGROV1 ovarian) was over 50 µM, the TGI (K-562 leukemia) was over 50 µM and the TGI (KM12 colon) was over 50 µM. It also gave a TGI (LOX IMVI melanoma) of over 50 µM, a TGI (M14 melanoma) of over 50 µM and a TGI (MALME-3M melanoma) of over 50 µM. The TGI (MCF7 breast) was over 50 µM, the TGI (MDA-MB-231 breast) was over 50 µM and the TGI (MDA-MB-435) was over 50 µM. It also gave a TGI (MDA-N) of over 50 µM, a TGI (MOLT-4 leukemia) of over 50 µM and a TGI (NCI-H226 lung) of 26.8 µM. It also gave a TGI (NCI-H23 lung) of over 50 µM, a TGI (NCI-H460 lung) of over 50 µM and a TGI (NCI-H522 lung) of over 50 µM. It also gave a TGI (NCI/ADR-RES ovarian) of over 50 µM, a TGI (OVCAR-3 ovarian) of over 50 µM and a TGI (OVCAR-4 ovarian) of over 50 µM. It also gave a TGI (OVCAR-5 ovarian) of over 50 µM, a TGI (OVCAR-8 ovarian) of over 50 µM and a TGI (PC-3 prostate) of over 50 µM. The TGI (RPMI-8226 leukemia) was over 50 µM, the TGI (RXF 393 renal) was over 50 µM and the TGI (SF-268 CNS) was over 50 µM. The TGI (SF-295 CNS) was over 50 µM, the TGI (SF-539 CNS) was 3.6 µM and the TGI (SK-MEL-2 melanoma) was over 50 µM. For the same compound, the TGI (SK-MEL-28 melanoma) was over 50 µM, the TGI (SK-MEL-5 melanoma) was over 50 µM and the TGI (SK-OV-3 ovarian) was over 50 µM. The TGI (SN12C renal) was over 50 µM, the TGI (SNB-19 CNS) was over 50 µM and the TGI (SNB-75 CNS) was over 50 µM. For the same compound, the TGI (SR leukemia) was over 50 µM, the TGI (SW-620 colon) was over 50 µM and the TGI (T-47D breast) was over 50 µM. For the same compound, the TGI (TK-10 renal) was over 50 µM, the TGI (U251 CNS) was over 50 µM and the TGI (UACC-257 melanoma) was over 50 µM. It also gave a TGI (UACC-62 melanoma) of over 50 µM and a TGI (UO-31 renal) of over 50 µM.

Compound `O/N=C/C1c2ccccc2-c2ccccc21` has a TGI (786-0 renal) of 21.9 µM, a TGI (A498 renal) of 32.9 µM and a TGI (A549 NSCLC) of 51.5 µM. The TGI (ACHN renal) was 32.2 µM, the TGI (BT-549 breast) was 33.1 µM and the TGI (CAKI-1 renal) was 33.2 µM. It also gave a TGI (CCRF-CEM leukemia) of 50.4 µM, a TGI (COLO 205 colon) of 30.7 µM and a TGI (DU-145 prostate) of 45.9 µM. It also gave a TGI (EKVX NSCLC) of 28.2 µM, a TGI (HCC-2998 colon) of 31.9 µM and a TGI (HCT-116 colon) of 32.8 µM. For the same compound, the TGI (HCT-15 colon) was 40.2 µM, the TGI (HL-60(TB) leukemia) was 93.7 µM and the TGI (HOP-62 NSCLC) was 34.2 µM. It also gave a TGI (HOP-92 NSCLC) of 28 µM, a TGI (HS 578T breast) of 47.6 µM and a TGI (HT29 colon) of 28.6 µM. The TGI (K-562 leukemia) was 67.3 µM, the TGI (KM12 colon) was 37.4 µM and the TGI (LOX IMVI melanoma) was 63.3 µM. The TGI (M14 melanoma) was 32.7 µM, the TGI (MALME-3M melanoma) was 31.9 µM and the TGI (MCF7 breast) was 33.7 µM. For the same compound, the TGI (MDA-MB-231 breast) was 29 µM, the TGI (MDA-MB-435) was 34.3 µM and the TGI (MDA-N) was 31.9 µM. For the same compound, the TGI (MOLT-4 leukemia) was 52.6 µM, the TGI (NCI-H226 lung) was 33.6 µM and the TGI (NCI-H23 lung) was 37.6 µM. It also gave a TGI (NCI-H460 lung) of 36 µM, a TGI (NCI-H522 lung) of 33.4 µM and a TGI (NCI/ADR-RES ovarian) of 33.8 µM. For the same compound, the TGI (OVCAR-3 ovarian) was 34.1 µM, the TGI (OVCAR-8 ovarian) was 41.5 µM and the TGI (PC-3 prostate) was 36.9 µM. For the same compound, the TGI (RPMI-8226 leukemia) was 52.8 µM, the TGI (RXF 393 renal) was 41.5 µM and the TGI (SF-268 CNS) was 37.6 µM. For the same compound, the TGI (SF-295 CNS) was 53.4 µM, the TGI (SF-539 CNS) was 31 µM and the TGI (SK-MEL-2 melanoma) was 36.1 µM. The TGI (SK-MEL-28 melanoma) was 29.2 µM, the TGI (SK-MEL-5 melanoma) was 25.4 µM and the TGI (SK-OV-3 ovarian) was 36.2 µM. The TGI (SN12C renal) was 31.9 µM, the TGI (SNB-19 CNS) was 38.6 µM and the TGI (SR leukemia) was 51.7 µM. The TGI (SW-620 colon) was 40.7 µM, the TGI (T-47D breast) was 56.3 µM and the TGI (TK-10 renal) was 34.9 µM. It also gave a TGI (U251 CNS) of 44 µM, a TGI (UACC-257 melanoma) of 34 µM and a TGI (UACC-62 melanoma) of 30.2 µM. For the same compound, the TGI (UO-31 renal) was 32.4 µM.
